Data on 4 compounds can be found in US20240068008A1, “RNase for Improved Microbial Detection and Antimicrobial Susceptibility Testing” (MicrobeDX Inc., priority 2016, published 2024).

Assay [1] deals with Escherichia coli. The assay can be described thus: AST with and without RNase, rRNA levels relative to control at 60 or 90 minutes. It counts as cell-based. The note with it: susceptible E. coli isolates, 60 or 90 minutes at 37° C., RNase added to the growth medium. The protocol:
Similar results have been observed for other Gram-negative bacteria such as Kiebsiella pneumoniae, Proteus mirabilis, and Pseudomonas aeruginosa using the same conditions and RNase concentrations as for E. coli.
Susceptible (S) and resistant (R) E. coli isolates were incubated in growth medium with ampicillin for 60 or 90 minutes at 37° C. with (+) and without (−) RNase.
Susceptible (S) and resistant (R) E. coli isolates were incubated in growth medium with cefazolin for 60 or 90 minutes at 37° C. with (+) and without (−) 1 μg/ml RNase.
Susceptible (S) and resistant (R) E. coli isolates were incubated in growth medium with ceftriaxone for 60 or 90 minutes at 37° C. with (+) and without (−) RNase.

Assay [2] has as its system K. pneumoniae. Described as above. Format: cell-based. The settings on record: susceptible K. pneumoniae isolates, 60 or 90 minutes at 37° C., RNase added to the growth medium. The protocol:
Susceptible (S) and resistant (R) K. pneumoniae isolates were incubated in growth medium with cefepime for 60 or 90 minutes at 37° C. with (+) and without (−) 1 μg/ml RNase.
Susceptible (S) and resistant (R) K. pneumoniae isolates were incubated in growth medium with ceftriaxone for 60 or 90 minutes at 37° C. with (+) and without (−) RNase.

Structures are written as SMILES.

`CC1(C)S[C@@H]2[C@H](NC(=O)[C@H](N)c3ccccc3)C(=O)N2[C@H]1C(=O)O` [ampicillin]: the “rRNA levels relative to control (growth medium without antibiotic)” value in assay [1] is “significant reduction in rRNA”.
In the case of `Cc1nnc(SCC2=C(C(=O)O)N3C(=O)[C@@H](NC(=O)Cn4cnnn4)[C@H]3SC2)s1` [cefazolin], in assay [1], the “rRNA levels relative to control (growth medium without antibiotic)” value is listed as “significant reduction in rRNA”.
For `CO/N=C(\C(=O)N[C@@H]1C(=O)N2C(C(=O)[O-])=C(C[N+]3(C)CCCC3)CS[C@H]12)c1csc(N)n1` [cefepime], the “rRNA levels relative to control (growth medium without antibiotic)” value in assay [2] is listed as “significant reduction in rRNA”.
Regarding `CO/N=C(\C(=O)N[C@@H]1C(=O)N2C(C(=O)O)=C(CSc3nc(=O)c(=O)[nH]n3C)CS[C@H]12)c1csc(N)n1` [ceftriaxone], the “rRNA levels relative to control (growth medium without antibiotic)” value in assay [1] and in assay [2] was “significant reduction in rRNA” each time.
